Measured values as given in PubChem BioAssay AID1963972 (Molecular Pharmacology Branch, DTP, NCI, 2024).
Values belong to the molecule of their own block, whether it stands above or below them.

System: 945468-187-T-J2-PDC spheroids viability
Test: Anticancer human tumor 945468-187-T-J2-PDC patient-derived rectal carcinoma cell line growth inhibition [PI3K]
Details: spheroids with HUVEC and MSC; for IC50: curve of first compound; for viability, T/C: stronger effect = lower value
Source text: Combinatorial screen of targeted agents with the PI3K inhibitors inavolisib, alpelisib, duvelisib, and copanlisib in multi-cell type tumor spheroids
A high-throughput screen of multi-cell type tumor spheroids was designed to identify active combinations of targeted small molecules and PI3K pathway inhibitors. Complex spheroids include a stromal component modeled by human endothelial cells (HUVEC) and fibroblasts modeled by human mesenchymal stem cells (MSCs). The concentration ranges selected for each drug and investigational agent were based upon clinically achievable concentrations if the clinical Cmax of the agent was known.
Compounds. The drugs and investigational agents: inavolisib (NSC800729), alpelisib (NSC765974), duvelisib (NSC772469), copanlisib (NSC816437), ipatasertib (NSC767898), afuresertib (NSC778305), talazoparib (NSC767125), sapanisertib (NSC764658), selumetinib (NSC741078), tovorafenib (DAY101, NSC766906), vemurafenib (NSC761431), ravoxertinib (NSC781343), sotorasib (NSC818433), MRTX1133 (NSC 836407), abemaciclib (NSC 768073), palbociclib (NSC758247), venetoclax (NSC 766270), SY5609 (NSC837396), enzalutamide (NSC755605), and darolutamide (NSC825331), were obtained from the National Cancer Institute (NCI) Developmental Therapeutics Program Chemical Repository. The FDA-approved anticancer drug set is available from the NCI Developmental Therapeutics Program. […] The stock solutions were prepared in dimethyl sulfoxide (DMSO, Sigma-Aldrich, St. Louis, MO, cat. D2650) at 800-fold the tested concentration and stored at -70 degrees C prior to their use. All drugs and investigational agents were tested over a range starting from a high concentration at or near the clinical Cmax and decreasing in half-log increments. If the clinical Cmax for an agent had not been determined, the highest concentration tested was 10 microM.
Cell Culture. All cells were maintained in an incubator at 37 degrees C and 5% CO2 with 95% humidity. The PDC lines were cultured according to standard operating procedures established by the NCI PDMR (https://pdmr.cancer.gov/sops/default.htm). All PDCs were thawed and cultured in Matrigel-coated flasks prepared with a working solution of 1X Ham's F-12 nutrient mix, without supplementation (Invitrogen, Waltham, MA, cat. 11765054), 100 U/mL penicillin-streptomycin (Invitrogen, cat. 15140122), and 2.5% Matrigel (Corning Inc., Corning, NY, cat. 354248) for the first three passages. The 354836-022-R-J1-PDC, 475296-252-R-J1-PDC, and 997726-040-R-J2-PDC lines were cultured in 6A media, which includes advanced DMEM/F-12 (Thermo Fisher Scientific, cat. 12634028), 10 mM HEPES (Thermo Fisher Scientific, cat. 15630080), 1X GlutaMAX supplement (Thermo Fisher Scientific, cat. 35050061), 0.1 mg/mL primocin (InvivoGen, San Diego, CA, cat. ant-pm-2), 10% defined fetal bovine serum, heat inactivated (HyClone Laboratories Inc., Logan, UT, cat. SH30070.03HI), 50% L-WRN conditioned media (ATCC, cat. CRL-3276), 1.25 mM N-Acetyl-L-cysteine (Sigma-Aldrich, cat. A9165), 10 mM nicotinamide (Sigma-Aldrich, cat. N0636), 1X B-27 supplement (Thermo Fisher Scientific, cat. 17504044), 1X N-2 supplement (Thermo Fisher Scientific, cat. 17502048), and 10 microM Y-27632 dihydrochloride (Tocris Bioscience, Bristol, United Kingdom, cat. 1254). The 624824-186-R-J2-PDC line was cultured in 6C/Colon 1B media, which includes all 6A media components plus 50 ng/mL human EGF recombinant protein (Thermo Fisher Scientific, cat. PHG0311). […]

[1] = second compound 0.00316 µM, first compound 0.0316 µM
[2] = second compound 0.00316 µM, first compound 0.1 µM
[3] = second compound 0.00316 µM, first compound 0.316 µM
[4] = second compound 0.00316 µM, first compound 1 µM
[5] = second compound 0.00316 µM, first compound 3.16 µM
[6] = second compound 0.00316 µM, first compound 10 µM
[7] = second compound 0.01 µM, first compound 0.0316 µM
[8] = second compound 0.01 µM, first compound 0.1 µM
[9] = second compound 0.01 µM, first compound 0.316 µM
[10] = second compound 0.01 µM, first compound 1 µM
[11] = second compound 0.01 µM, first compound 3.16 µM
[12] = second compound 0.01 µM, first compound 10 µM
[13] = second compound 0.0316 µM, first compound 0.0316 µM
[14] = second compound 0.0316 µM, first compound 0.1 µM
[15] = second compound 0.0316 µM, first compound 0.316 µM
[16] = second compound 0.0316 µM, first compound 1 µM
[17] = second compound 0.0316 µM, first compound 3.16 µM
[18] = second compound 0.0316 µM, first compound 10 µM
[19] = second compound 0.1 µM, first compound 0.0316 µM
[20] = second compound 0.1 µM, first compound 0.1 µM
[21] = second compound 0.1 µM, first compound 0.316 µM
[22] = second compound 0.1 µM, first compound 1 µM
[23] = second compound 0.1 µM, first compound 3.16 µM
[24] = second compound 0.1 µM, first compound 10 µM
[25] = second compound 0.316 µM, first compound 0.0316 µM
[26] = second compound 0.316 µM, first compound 0.1 µM
[27] = second compound 0.316 µM, first compound 0.316 µM
[28] = second compound 0.316 µM, first compound 1 µM
[29] = second compound 0.316 µM, first compound 3.16 µM
[30] = second compound 0.316 µM, first compound 10 µM
[31] = second compound 1 µM, first compound 0.0316 µM
[32] = second compound 1 µM, first compound 0.1 µM
[33] = second compound 1 µM, first compound 0.316 µM
[34] = second compound 1 µM, first compound 1 µM
[35] = second compound 1 µM, first compound 3.16 µM
[36] = second compound 1 µM, first compound 10 µM
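Also: spheroids exposed to compounds for seven days before reading.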

IC50 (second compound 0.00316 µM): 7.88 µM
IC50 (second compound 0.01 µM): > 10 µM
IC50 (second compound 0.0316 µM): 7.6 µM
IC50 (second compound 0.1 µM): 7.73 µM
IC50 (second compound 0.316 µM): 6.74 µM
IC50 (second compound 1 µM): > 10 µM
SMILES: CC1(C)CCC(CN2CCN(c3ccc(C(=O)NS(=O)(=O)c4ccc(NCC5CCOCC5)c([N+](=O)[O-])c4)c(Oc4cnc5[nH]ccc5c4)c3)CC2)=C(c2ccc(Cl)cc2)C1 + CC(Nc1ccc2c(c1)OCCn1cc(N3C(=O)OCC3C(F)F)nc1-2)C(N)=O
viability, T/C [1]: 113%
viability, T/C [2]: 100%
viability, T/C [3]: 96.6%
viability, T/C [4]: 118%
viability, T/C [5]: 93.2%
viability, T/C [6]: 38.8%
viability, T/C [7]: 94.2%
viability, T/C [8]: 104%
viability, T/C [9]: 118%
viability, T/C [10]: 98.3%
viability, T/C [11]: 89.4%
viability, T/C [12]: 51.7%
viability, T/C [13]: 96.1%
viability, T/C [14]: 113%
viability, T/C [15]: 95.3%
viability, T/C [16]: 88.9%
viability, T/C [17]: 101%
viability, T/C [18]: 34.6%
viability, T/C [19]: 98.9%
viability, T/C [20]: 92.2%
viability, T/C [21]: 92.4%
viability, T/C [22]: 92.5%
viability, T/C [23]: 98.6%
viability, T/C [24]: 37.1%
viability, T/C [25]: 88.1%
viability, T/C [26]: 89%
viability, T/C [27]: 84.3%
viability, T/C [28]: 89.6%
viability, T/C [29]: 83.1%
viability, T/C [30]: 32.7%
viability, T/C [31]: 69.2%
viability, T/C [32]: 81.7%
viability, T/C [33]: 94.8%
viability, T/C [34]: 66%
viability, T/C [35]: 77.8%
viability, T/C [36]: 52.3%

IC50 (second compound 0.00316 µM): > 10 µM
IC50 (second compound 0.01 µM): > 10 µM
IC50 (second compound 0.0316 µM): > 10 µM
IC50 (second compound 0.1 µM): > 10 µM
IC50 (second compound 0.316 µM): > 10 µM
IC50 (second compound 1 µM): > 10 µM
SMILES: C[C@@H](NC(=O)c1ncnc(N)c1Cl)c1ncc(C(=O)Nc2cc(C(F)(F)F)c(Cl)cn2)s1 + CC(Nc1ccc2c(c1)OCCn1cc(N3C(=O)OCC3C(F)F)nc1-2)C(N)=O
viability, T/C [1]: 94.6%
viability, T/C [2]: 117%
viability, T/C [3]: 127%
viability, T/C [4]: 75.7%
viability, T/C [5]: 136%
viability, T/C [6]: 96.7%
viability, T/C [7]: 99.2%
viability, T/C [8]: 71.4%
viability, T/C [9]: 115%
viability, T/C [10]: 87.5%
viability, T/C [11]: 98.3%
viability, T/C [12]: 108%
viability, T/C [13]: 84.9%
viability, T/C [14]: 104%
viability, T/C [15]: 115%
viability, T/C [16]: 103%
viability, T/C [17]: 112%
viability, T/C [18]: 90.3%
viability, T/C [19]: 105%
viability, T/C [20]: 112%
viability, T/C [21]: 104%
viability, T/C [22]: 96.8%
viability, T/C [23]: 97.7%
viability, T/C [24]: 93%
viability, T/C [25]: 72.5%
viability, T/C [26]: 103%
viability, T/C [27]: 105%
viability, T/C [28]: 88.2%
viability, T/C [29]: 86.7%
viability, T/C [30]: 97.2%
viability, T/C [31]: 68.7%
viability, T/C [32]: 73.4%
viability, T/C [33]: 67.5%
viability, T/C [34]: 79.3%
viability, T/C [35]: 94.4%
viability, T/C [36]: 83.9%
